The source of these data is PMC11065314, “Identification of compounds that cause axonal dieback without cytotoxicity in dorsal root ganglia explants and intervertebral disc cells with potential to treat pain via denervation” (PLOS ONE, 2024).

Molecules are shown by their SMILES. Where “and” joins values, the source holds several entries; their conditions need not be identical. Equal entries are not always repeated. Structures can show the parent of a compound that is named as a salt.

Data set [1] can be described thus: DRG cytotoxicity assessment using LDH assay. It counts as cell-based, rat. To be noted: female, rat, rat dorsal root ganglion (DRG) explants, 100 nM, female rat DRG explant, single well. Here is the method:
(§1) 500 nM Imy and 10 nM Vcr were excluded from female rat DRG experiments while 500 nM Vcr and 1 mM Pyr were excluded from male rat DRG experiments due to insufficient DRG replicates with axon outgrowth. DRG media was removed from wells and transferred into a 96-well plate for pre-treat LDH cytotoxicity assay (see Methods below). 300 μL of media treatment solutions or solvent control solutions were added to wells. DRGs were incubated with treatment solutions for three days, and brightfield images at 4X magnification were taken using BioTek Cytation1 Plate Imager (Agilent) before treatment (day -1) and on days 1, 2 and 3 after treatment. DRGs from adult male and female rats were tested to determine if sex can affect axonal dieback. In total, 12 to 15 DRG replicates per group by sex harvested from n = 3 male and n = 3 female rats were tested.
(§2) Lactate dehydrogenase (LDH) is a cytosolic enzyme present in all cells. Dissociated rat DRG neurons release LDH during tunicamycin-induced apoptosis. […] An ideal axonal dieback compound should cause axonal degeneration without neurotoxicity. was assessed on day 3 post-treat and normalized to pre-treat levels to account for variability in DRG size and growth and calculated as a percentage of cytotoxicity to lysed DRGs (positive control). 50 μL of pre-treatment and post-treatment media were aliquoted in duplicates into a 96-well plate. LDH activity in the media post-treat was assessed using the CyQUANT^TM LDH Cytotoxicity Assay Kit (Thermo Fisher Scientific, C20301) according to the manufacturer’s instructions. Briefly, 50 μL of Substrate Mix was added to each well and then incubated at room temperature for 30 minutes protected from light. 50 μL of Stop solution was added to each well and the absorbance at 490 nm and 680 nm was measured using a microplate reader (Agilent). LDH activity of each DRG was calculated as the difference between absorbance at 490 nm after subtracting the background absorbance at 680 nm. As a positive control, 13 female rat DRGs and 15 male rat DRGs were treated for three days with Lysis buffer solution, provided in the kit, diluted 1:5.45 in DRG media. The percentage of cytotoxicity was calculated following Eq 2. Pre-treat levels of LDH activity were subtracted from post-treat LDH activity in each DRG to remove baseline LDH activity then percentage of cytotoxicity compared to positive control lysed DRG LDH activity was calculated. Sex is a biological factor that can influence neurotoxicity. Thus, percentage of cytotoxicity of total 11 to 14 DRG replicates per group by sex from n = 3 male and n = 3 female rats were tested.
(§3) Cytotoxicity(%)=(PosttreatLDHactivity)−(PretreatLDHactivity)/(MaximumLDHactivityfromlysedDRGs)−(PretreatLDHactivity)×100% (2)

In data set [2] the test system is rat DRG explants. As to the kind of experiment: DRG cytotoxicity assessment using LDH assay. The format is cell-based. The note with it: for Cytotoxicity (%): female rat DRG explant, single well. Here is the method:
as §1, §2, §3

For data set [3] the following is noted: systemic administration; cited from earlier work.
Data set [4] concerns dissociated DRG neurons from embryonic mice. The arrangement: method as in PMID 31484833. To be noted: 40 nM; cited from earlier work.
Data set [5] is described as follows: Quantification of viable NP cells (LIVE/DEAD staining). The format is cell-based, human. To be noted: both sexes, human, human nucleus pulposus (NP) cells; 10 to 500 nM, day 3 post-treat; read-out: Percentage of viable cells. Here is the method:
Nucleus pulposus (NP) cells are native matrix-producing cells at the core of intervertebral discs. To repurpose axonal dieback compounds to denervate aberrant nerve fibers in discs related to chronic LBP, the cytocompatibility of these compounds with NP cells must be evaluated. Human NP cells (Sciencell, 4800) from donor 1 (Lot #5954) and donor 2 (Lot# 21579) were cultured according to previously established protocol in our lab adapted from manufacturer’s instructions. Briefly, passage three cells from both donors were expanded in Poly-L-lysine (PLL) (Sciencell, 413) coated T75 flasks. Cells were then lifted and reseeded at 5,000 cells/cm^2 onto two PLL-coated 48-well plates (Greiner Bio-One, 677180) and allowed to attach overnight before treating with Pyr or Vcr. One plate was used for LIVE/DEAD staining and the other plate was used for AlamarBlue assay as described below. Complete NP cell media (Sciencell, 4801) containing basal media supplemented with 1% penicillin-streptomycin, 1% growth supplement and 2% FBS were used for maintaining cells in culture. To mimic the hypoxic disc environment, NP cells were cultured in a hypoxia chamber (Stem Cell Technologies, 27310) with 5% CO2, 3.5% O2, 91.5% N2 (Airgas) during the entire culture and treatment incubation period.
Pyr stock solution was diluted in complete NP media to achieve final concentrations of 500 μM, 1 mM and 2 mM Pyr. 16.9 μg/mL and 169 μg/mL Vcr stock solutions were prepared in 1X PBS then diluted in complete NP media to achieve final concentrations of 10, 25, 50, 100 nM and 200, 500 nM, respectively. Cells were incubated with 250 μL of final treatment solutions in duplicate wells per donor for three days. Cells in negative control group were incubated with 250 μL of complete NP media with 0.55% v/v 1X PBS as solvent control. On day 3 post-treatment, brightfield images at 4X magnification were taken using a BioTek Cytation1 Plate Imager (Agilent) to verify cell proliferation and observe cell morphology. Three experimental replicates were performed for each cell donor.
On day 3 of incubation with drug, media treatment solutions were removed from each well and cells were carefully rinsed with 200 μL of sterile 1X PBS to remove excess media. NP cells were stained with 150 μL of 2 μM Calcein AM and 6 μM EtHD-1 solution from LIVE/DEAD Viability/Cytotoxicity Kit (Thermo Fisher Scientific, L3224) for 30 minutes at room temperature protected from light. After staining, cells were gently rinsed with 200 μL sterile 1X PBS to remove excess staining solution. Excitation and emission wavelengths for live cell fluorescence is 495 and 515 nm and dead cell fluorescence is 495 and 635 nm. Using a BioTek Cytation1 Plate Imager (Agilent), GFP filter cube (Agilent, 1225101, ex: 451.5–486.5 nm, em: 505.5–544.5 nm) and RFP filter cubes (Agilent, 1225103, ex: 511-551nm, em: 573–613 nm), fluorescent images at 4X magnification of four regions per well were taken. Gen5 v3.11 software (Agilent) was used to count green (live) and orange (dead) cells in fluorescent images. Dead NP cell staining was verified and evident by positive EtHD-1 orange staining in kill control wells where cells were treated with 70% EtOH for 10 minutes (S4 Fig). Percentage of live cells were calculated by calculating the percentage of live cells over total cell counts as shown in Eq 3.
Cellviability(%)=Livecellcounts/Livecellcounts+Deadcellcounts×100% (3)

Take `CC[C@]1(O)C[C@H]2CN(CCc3c([nH]c4ccccc34)[C@@](C(=O)OC)(c3cc4c(cc3OC)N(C=O)[C@H]3[C@@](O)(C(=O)OC)[C@H](OC(C)=O)[C@]5(CC)C=CCN6CC[C@]43[C@@H]65)C2)C1` [Vcr, vincristine sulfate]: in data set [1], the cytotoxicity at 3 days, 0.1 µM was 15.5%. The “Cytotoxicity (%)” value in data set [2] (1 nM, 0.001 µM) was 6.189% and 9.7112% and 4.38%; in data set [2] (100 nM, 0.1 µM) it was 11.901%; in data set [2] (500 nM, 0.5 µM), 7.521% and 12.2818% and 15.3285%. The “Percentage of DRG cytotoxicity, Mean (SD)” value in data set [2] (10 nM, day 3, male rat DRGs only, relative to lysed DRGs) was 7.02 (4.36) %. In addition, the “Percentage of cytotoxicity less than lysed DRGs” value in data set [2] (100 nM, day 3) is on record as 89.8%. The “Overall cytotoxicity lower compared to lysed DRGs” value in data set [2] (all concentrations tested, day 3) is “at least 88%”. In data set [3], the “Chemotherapy patients developing peripheral neuropathy” value was 96%. The “Time to axon degeneration” value in data set [4] was at most 12 h. Also, the “Time to complete axon fragmentation” value in data set [4] was at most 36 h. In data set [5], the viability at 3 days was above 81%.
